The values that follow come from US20010001101A1, “Phenanthroline derivatives” (Zeneca Limited, priority 1997, published 2001).

The subject of data set [1] is collagen within the uteri of immature female rats. Briefly: in vivo inhibition of prolyl hydroxylation within collagen in uteri of immature female rats (test (d)). To be noted: Rattus norvegicus, po; 50 mg/kg orally, compound dosed 2 hours before proline administration. How it is done:
(d) An in vivo assay involving the measurement of the inhibition by a test compound of hydroxylation at the 4-trans-position of prolyl residues within collagen within the uteri of immature (20-21 day) female rats. The test compounds were administered either orally or intraperitoneally to the rats in which uterine collagen synthesis had been stimulated by the subcutaneous administration of a solution of oestradiol benzoate (0.5 μg on each of two successive days) in arachis […] oil. The rats were dosed with 5 μCuries of [^14C]-L-proline and the uteri were taken 2 hours after the dosing of the radiolabelled proline and sonicated. Collagen was extracted by treatment of the tissue with water at 120° C. for 1 hour in an autoclave and hydrolysed by treatment with 6N hydrochloric acid for 18 hours at reflux temperature. The proline and 4-hydroxyproline residues were separated by column chromatography on a reversed-phase Spherisorb S5ODS1 column using as eluent a 89.9:10:0.1 v/v mixture of water:isopropanol:trifluoroacetic acid to which 0.3% w/v of sodium dodecylsulphate had been added. The ratio of radioactivity found in each of the proline and 4-hydroxyproline fractions was determined by liquid scintillation counting to allow the measurement of the inhibition of hydroxylation by a test compound.

The target of the next data set is T1, prolyl 4-hydroxylase (Gallus gallus, UniProt P16924).
T1 construct: a highly purified preparation of prolyl 4-hydroxylase; from tissue; chick embryos according to the cited method (own knowledge)
T1 sequence (P16924 1-516): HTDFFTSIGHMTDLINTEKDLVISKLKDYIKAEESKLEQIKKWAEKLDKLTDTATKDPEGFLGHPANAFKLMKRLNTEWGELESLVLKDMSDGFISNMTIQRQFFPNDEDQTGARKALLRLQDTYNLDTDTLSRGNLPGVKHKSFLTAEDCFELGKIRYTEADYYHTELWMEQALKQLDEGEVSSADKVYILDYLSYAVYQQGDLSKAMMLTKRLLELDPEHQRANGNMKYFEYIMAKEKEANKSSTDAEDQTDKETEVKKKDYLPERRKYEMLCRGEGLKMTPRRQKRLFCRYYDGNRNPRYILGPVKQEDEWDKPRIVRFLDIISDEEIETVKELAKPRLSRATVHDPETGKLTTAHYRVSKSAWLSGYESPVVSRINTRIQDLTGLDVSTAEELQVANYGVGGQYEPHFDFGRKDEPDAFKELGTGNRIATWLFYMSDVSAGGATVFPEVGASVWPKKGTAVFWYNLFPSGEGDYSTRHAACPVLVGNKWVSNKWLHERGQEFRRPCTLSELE
T1 sequence (P09102 23-515 partner): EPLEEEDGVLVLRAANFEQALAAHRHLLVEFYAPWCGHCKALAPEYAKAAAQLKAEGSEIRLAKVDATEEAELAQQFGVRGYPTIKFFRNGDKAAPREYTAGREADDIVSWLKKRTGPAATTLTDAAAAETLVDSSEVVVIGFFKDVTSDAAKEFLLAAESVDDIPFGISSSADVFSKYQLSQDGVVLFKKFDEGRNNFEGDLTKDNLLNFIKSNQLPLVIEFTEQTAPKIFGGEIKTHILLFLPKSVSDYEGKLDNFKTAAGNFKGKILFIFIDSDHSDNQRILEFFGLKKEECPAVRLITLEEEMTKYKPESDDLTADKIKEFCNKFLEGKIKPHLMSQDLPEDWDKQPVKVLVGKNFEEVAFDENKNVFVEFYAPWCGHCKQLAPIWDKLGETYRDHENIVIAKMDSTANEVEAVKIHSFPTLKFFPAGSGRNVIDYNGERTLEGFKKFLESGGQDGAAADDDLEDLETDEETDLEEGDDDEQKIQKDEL
In words: in vitro enzyme assay, cell free, highly purified prolyl 4-hydroxylase (test (a)). It is filed as biochemical. The procedure: (a) An in vitro enzyme assay system, which assesses the inhibitory properties of a test compound in a cell free system using a highly purified preparation of prolyl 4-hydroxylase. The enzyme preparation was obtained using the method described by N. Kedersha and R. Berg (Collagen Related Research, 1:345 (1981)) and the activity of a test compound was measured using the method described by C. J. Cunliffe, T. J. Franklin and R. Gaskell (Biochem. J., 240:617 (1986)).

For the next data set, the system named is 3T6 cells. In words: 3T6 cells: inhibition of hydroxylation of prolyl residues within collagen (test (c)). To be noted: hydroxylation of prolyl residues in collagen. It is filed as cell-based. The procedure:
(c) An in vitro assay involving incubating cultures of 3T6 cells with a test compound and [^14C]- and [^3H]-labelled L-proline, and measuring the inhibition of hydroxylation at the 4-trans-position of prolyl residues within the available collagen using the procedure described by T. J. Franklin and M. Hitchen (Biochem. J., 261:127-130 (1989)).

The test system of data set [2] is embryonic chick tendon cells. In words: embryonic chick tendon cells: inhibition of hydroxylation of prolyl residues within collagen (test (b)). It is filed as cell-based. To be noted: Gallus gallus, hydroxylation of prolyl residues in collagen. The procedure: (b) An in vitro assay system involving incubating embryonic chick tendon cells in the presence of a test compound and measuring the inhibition of hydroxylation at the 4-position of prolyl residues within the available collagen. The embryonic chick tendon cells were prepared from the leg tendons of 17-day chick embryos using the method of P. Dehm and D. Prockop (Biochem. Biophys Acta, 240:358 (1971)). The cells were incubated in the presence of [^14C]- and [^3H]-labelled L-proline and the extent of hydroxylation at the 4-trans-position of the prolyl residues within the collagen was determined using the procedure described by T. J. Franklin and M. Hitchen (Biochem. J, 261:127-130 (1989)).

Structures are written as SMILES.

The molecule `CCCCN(CC)C(=O)c1cnc2c3c(ccc2c1)C(=O)C(C(=O)O)C=N3` (centres unmarked) [Example 2, 8-(N-butyl-N-ethylcarbamoyl)-3-carboxy-4-oxo-3,4-dihydro-1,10-phenanthroline] yielded a melting point of 236 to 237 °C. In addition, the inhibition at 50 mg/kg in data set [1] was 46%. For the same molecule, the IC50 against prolyl 4-hydroxylase came to 0.4 µM. Besides, half-maximal inhibition in the data set with 3T6 cells (IC50) was put at 5.4 µM. The IC50 in data set [2] amounted to 1.2 µM.

A word on the inhibition: it is the relative decrease from the control value, in per cent. Read a low inhibition as a response near the control. The IC50 is the concentration that inhibits the measured activity by half. Read a high IC50 as lower potency. Usually melting point stands for the temperature of the solid-liquid transition.
